Converted amounts (≈) assume the structure as drawn. “Also recorded” adds a separate entry of the source. Read-outs that look alike come from different tables or passages of the source.
What was measured:
[1] = Stability of Form II in solvents after 24 hours (HPLC); format: physicochemical; settings: for Form II Peak Area T = 24 hours: 24 hours at ambient (25° C.); for Form II Peak Area: initial injection; for Visual Observations (signs of degradation in chromatograms): initial vs T = 24 hours;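 as to Form II Peak Area T = 24 hours: same diluted solubility sample reinjected at the initial injection volume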
Excerpt: The chromatograms were then overlayed and visual signs of degradation were noted, i.e., loss of compound 1 peak area or increase of other peaks in the chromatography.

[2] = Kinetic solubility of crystalline Form II in solvents; format: physicochemical; settings: for solubility at 4 h: 25 °C, thermodynamic from solid; for Solubility: 25° C., 4 hours
Description: The solubility of crystalline Form II was analyzed with 15 types of common solvents. Sufficient amount of Form II was suspended in 0.5 mL solvent for a maximum anticipated concentration of Ca. =10-100 mg/ml of the free Form II. The resulting suspensions were then shaken in a platform shaker at 25° C./ 750 rpm for 4 hours. After equilibration, the appearance was recorded, and the pH of the saturated solution was measured for aqueous samples only. Samples were then centrifuged for 5 minutes at 13.4 krpm before dilution with MeCN except for the samples that were initially diluted in n-heptane, which were then diluted in 2-propanol rather than MeCN.
All diluted samples were then analyzed by HPLC. Samples were further diluted based on appearance and the maximum anticipated concentration […]. All diluted samples were injected at 10, 15 and 20 piL to obtain peak areas within the calibration curve as a diluted concentration of Ca. 0.1 mg/ml was trying to be achieved.
Quantitation was measured by HPLC with reference to a standard solution of approximately 0.15 mg/ml in MeCN. Different volumes of the standard diluted and undiluted sample solutions were injected. The solubility was calculated using the peak areas determined by integration of the peak found at the same retention time as the principal peak in the standard injection.

SMILES: C[C@H]1CC[C@H](N2CC(=O)N(Cc3ccc(F)c(F)c3)C3(CN(C=O)C3)C2=O)CC1 [Form II, 5-(3,4-difluorobenzyl)-8-((1r,4r)-4-methylcyclohexyl)-6,9-dioxo-2,5,8-triazaspiro[3.5]nonane-2-carbaldehyde]
- Form II Peak Area T = 24 hours ([1]; 2-BuOH): 35.2
- Form II Peak Area ([1]; 2-BuOH): 35.3
- Visual Observations (signs of degradation in chromatograms) ([1]; 2-BuOH): No sign of degradation
- Form II Peak Area T = 24 hours ([1]; 2-Me-THF): 51.5
- Form II Peak Area ([1]; 2-Me-THF): 51.7
- Visual Observations (signs of degradation in chromatograms) ([1]; 2-Me-THF): No sign of degradation
- Form II Peak Area T = 24 hours ([1]; Acetone): 167.7
- Form II Peak Area ([1]; Acetone): 166.0
- Visual Observations (signs of degradation in chromatograms) ([1]; Acetone): no visual signs of further degradation; also recorded: No sign of degradation
- Form II Peak Area T = 24 hours ([1]; DI Water): 10.8
- Form II Peak Area ([1]; DI Water): 10.8
- Visual Observations (signs of degradation in chromatograms) ([1]; DI Water): No sign of degradation
- Form II Peak Area T = 24 hours ([1]; DMSO): 194.2
- Form II Peak Area ([1]; DMSO): 193.2
- Visual Observations (signs of degradation in chromatograms) ([1]; DMSO): no visual signs of further degradation; also recorded: No sign of degradation
- Form II Peak Area T = 24 hours ([1]; EtOH): 54.7
- Form II Peak Area ([1]; EtOH): 53.1
- Visual Observations (signs of degradation in chromatograms) ([1]; EtOH): did not appear to degrade further; also recorded: Late eluting impurity peak, present
- Form II Peak Area T = 24 hours ([1]; IPA): 30.5
- Form II Peak Area ([1]; IPA): 30.3
- Visual Observations (signs of degradation in chromatograms) ([1]; IPA): No sign of degradation
- Form II Peak Area T = 24 hours ([1]; Isopropyl acetate): 66.3
- Form II Peak Area ([1]; Isopropyl acetate): 66.6
- Visual Observations (signs of degradation in chromatograms) ([1]; Isopropyl acetate): did not seem to degrade further; also recorded: Impurities eluting after compound 1
- Form II Peak Area T = 24 hours ([1]; MIBK): 85.1
- Form II Peak Area ([1]; MIBK): 85.1
- Visual Observations (signs of degradation in chromatograms) ([1]; MIBK): No sign of degradation
- Form II Peak Area T = 24 hours ([1]; MeCN): 190.4
- Form II Peak Area ([1]; MeCN): 188.0
- Visual Observations (signs of degradation in chromatograms) ([1]; MeCN): no visual signs of further degradation; also recorded: No sign of degradation
- Form II Peak Area T = 24 hours ([1]; MeOH): 202.1
- Form II Peak Area ([1]; MeOH): 199.0
- Visual Observations (signs of degradation in chromatograms) ([1]; MeOH): no visual signs of further degradation; also recorded: No sign of degradation
- Form II Peak Area T = 24 hours ([1]; THF): 177.4
- Form II Peak Area ([1]; THF): 177.3
- Visual Observations (signs of degradation in chromatograms) ([1]; THF): no visual signs of further degradation; also recorded: No sign of degradation
- Form II Peak Area T = 24 hours ([1]; Tert-Butylmetyl ether): 24.7
- Form II Peak Area ([1]; Tert-Butylmetyl ether): 24.2
- Visual Observations (signs of degradation in chromatograms) ([1]; Tert-Butylmetyl ether): Large impurity peak eluting after
- Form II Peak Area T = 24 hours ([1]; Toluene): 40.5
- Form II Peak Area ([1]; Toluene): 41.2
- Visual Observations (signs of degradation in chromatograms) ([1]; Toluene): No sign of degradation
- solubility at 4 h ([2]; 2-BuOH, organic solvent or mixture, 2-BuOH, read-out: Average Solubility): 11 mg/mL (≈ 27.1 mM)
- solubility at 4 h ([2]; 2-BuOH, organic solvent or mixture, 2-BuOH, single replicate, read-out: Solubility): 11 mg/mL (≈ 27.1 mM)
- solubility at 4 h ([2]; 2-Me-THF, organic solvent or mixture, 2-Me-THF, read-out: Average Solubility): 24 mg/mL (≈ 59.2 mM)
- solubility at 4 h ([2]; 2-Me-THF, organic solvent or mixture, 2-Me-THF, single replicate, read-out: Solubility): 24 mg/mL (≈ 59.2 mM)
- solubility at 4 h ([2]; Acetone, organic solvent or mixture, Acetone, single replicate, read-out: Solubility): > 101 mg/mL
- solubility at 4 h ([2]; DI Water, pH 8.7, water, DI Water, final pH 8.7, read-out: Average Solubility): ~0.41 mg/mL (≈ 1.01 mM)
- solubility at 4 h ([2]; DI Water, pH 8.7, water, DI Water, final pH 8.7, single replicate, read-out: Solubility): 0.5 mg/mL (≈ 1.23 mM)
- Solubility ([2]; DI Water, final pH 8.7, single replicate): 0.31 mg/mL (≈ 0.765 mM)
- solubility at 4 h ([2]; DMSO, organic solvent or mixture, DMSO, read-out: Average Solubility): > 100 mg/mL
- solubility at 4 h ([2]; DMSO, organic solvent or mixture, DMSO, single replicate, read-out: Solubility): > 101 mg/mL
- Solubility ([2]; DMSO, single replicate): >101.2 mg/mL
- solubility at 4 h ([2]; EtOH, organic solvent or mixture, EtOH, read-out: Average Solubility): ~24 mg/mL (≈ 59.2 mM)
- solubility at 4 h ([2]; EtOH, organic solvent or mixture, EtOH, single replicate, read-out: Solubility): 25 mg/mL (≈ 61.7 mM)
- Solubility ([2]; EtOH, single replicate): 23 mg/mL (≈ 56.7 mM)
- solubility at 4 h ([2]; IPA, organic solvent or mixture, IPA, read-out: Average Solubility): 9.8 mg/mL (≈ 24.2 mM)
- solubility at 4 h ([2]; IPA, organic solvent or mixture, IPA, single replicate, read-out: Solubility): 9.8 mg/mL (≈ 24.2 mM)
- solubility at 4 h ([2]; Isopropyl acetate, organic solvent or mixture, Isopropyl acetate, single replicate, read-out: Solubility): 22 mg/mL (≈ 54.3 mM)
- solubility at 4 h ([2]; MIBK, organic solvent or mixture, MIBK, read-out: Average Solubility): 39 mg/mL (≈ 96.2 mM)
- solubility at 4 h ([2]; MIBK, organic solvent or mixture, MIBK, single replicate, read-out: Solubility): 39 mg/mL (≈ 96.2 mM)
- solubility at 4 h ([2]; MeCN, organic solvent or mixture, MeCN, read-out: Average Solubility): > 100 mg/mL
- solubility at 4 h ([2]; MeCN, organic solvent or mixture, MeCN, single replicate, read-out: Solubility): > 101 mg/mL
- Solubility ([2]; MeCN, single replicate): >100.6 mg/mL
- solubility at 4 h ([2]; MeOH, organic solvent or mixture, MeOH, read-out: Average Solubility): > 100 mg/mL
- solubility at 4 h ([2]; MeOH, organic solvent or mixture, MeOH, single replicate, read-out: Solubility): > 100 mg/mL
- Solubility ([2]; MeOH, single replicate): >100.6 mg/mL
- solubility at 4 h ([2]; THF, organic solvent or mixture, THF, read-out: Average Solubility): > 100 mg/mL
- solubility at 4 h ([2]; THF, organic solvent or mixture, THF, single replicate, read-out: Solubility): > 102 mg/mL
- Solubility ([2]; THF, single replicate): >101.2 mg/mL
- solubility at 4 h ([2]; Tert-Butylmethyl ether, organic solvent or mixture, Tert-Butylmethyl ether, read-out: Average Solubility): 1.12 mg/mL (≈ 2.76 mM)
- solubility at 4 h ([2]; Tert-Butylmethyl ether, organic solvent or mixture, Tert-Butylmethyl ether, single replicate, read-out: Solubility): 1.12 mg/mL (≈ 2.76 mM)
- solubility at 4 h ([2]; Toluene, organic solvent or mixture, Toluene, read-out: Average Solubility): 9.6 mg/mL (≈ 23.7 mM)
- solubility at 4 h ([2]; Toluene, organic solvent or mixture, Toluene, single replicate, read-out: Solubility): 9.5 mg/mL (≈ 23.4 mM)
- Solubility ([2]; Toluene, single replicate): 9.6 mg/mL (≈ 23.7 mM)
- solubility at 4 h ([2]; acetone, organic solvent or mixture, Acetone, read-out: Average Solubility): > 100 mg/mL
- solubility at 4 h ([2]; isopropyl acetate, organic solvent or mixture, Isopropyl acetate, read-out: Average Solubility): 22 mg/mL (≈ 54.3 mM)

Reference: patent US20240132498A1, “CRYSTALLINE FORMS OF 5-(3,4-DIFLUOROBENZYL)-8-((1R,4R)-4-METHYLCYCLOHEXYL)-6,9-DIOXO-2,5,8-TRIAZASPIRO[3.5]NONANE-2-CARBALDEHYDE” (Cytokinetics, Incorporated, priority 2022, published 2024)
